Laboratory results published in US20110105492A1, “ARYL SUBSTITUTED ARYLINDENOPYRIMIDINES AND THEIR USE AS HIGHLY SELECTIVE ADENOSINE A2a RECEPTOR ANTAGONISTS” (priority 2009, published 2011).

Legend:
[1] = molecular target: T1, human adenosine A1 receptor (Homo sapiens, UniProt P30542); assay: Adenosine A1 Receptor Functional Assay (A1GAL2); format: cell-based; conditions: CHO-K1 cells overexpressing human A1, cAMP inducible beta-galactosidase reporter, antagonist vs 4 nM r-PIA/1 uM Forskolin challenge
T1 construct: expressed in transfected cells; host or cells: CHO-K1 cells with a cAMP inducible beta-galactosidase reporter gene
T1 sequence (P30542 1-326): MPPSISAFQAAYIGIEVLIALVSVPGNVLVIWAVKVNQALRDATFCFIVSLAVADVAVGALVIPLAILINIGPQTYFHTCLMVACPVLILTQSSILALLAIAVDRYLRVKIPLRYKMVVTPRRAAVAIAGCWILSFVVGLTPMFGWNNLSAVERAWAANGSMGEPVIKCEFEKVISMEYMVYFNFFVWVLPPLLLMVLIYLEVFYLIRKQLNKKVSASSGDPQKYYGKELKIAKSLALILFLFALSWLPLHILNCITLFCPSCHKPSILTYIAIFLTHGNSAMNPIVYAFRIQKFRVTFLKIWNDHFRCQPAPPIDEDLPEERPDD
Protocol: Adenosine A1 Receptor Functional Assay (A1GAL2)
To initiate the functional assay, cryopreserved CHO-K1 cells overexpressing the human adenosine A1 receptor and containing a cAMP inducible beta-galactosidase reporter gene were thawed, centrifuged, DMSO containing media removed, and then seeded with fresh culture media into clear 384-well tissue culture treated plates (BD #353961) at a concentration of 10K cells/well. Prior to assay, these plates were cultured for two days at 37° C., 5% CO2, 90% Rh. On the day of the functional assay, culture media was removed and replaced with 45 μL assay medium (Hams/F-12 Modified (Mediatech # 10-080CV) supplemented w/0.1% BSA). Test compounds were diluted and 11 point curves created at a 1000× concentration in 100% DMSO. Immediately after addition of assay media to the cell plates, 50 nL of the appropriate test compound antagonist or agonist control curves were added to cell plates using a Cartesian Hummingbird. Compound curves were allowed to incubate at room temperature on cell plates for approximately 15 minutes before addition of a 4 nM r-PIA (Sigma P4532)/1 uM Forskolin (Sigma F3917) agonist challenge (5 μL volume). A control curve of r-PIA in 1 uM Forskolin, a DMSO/Media control, and a single dose of Forskolin were also included on each plate. After additions, cell plates were allowed to incubate at 37° C., 5% CO2, 90% Rh for 5.5-6 hours. After incubation, media was removed, and cell plates were washed 1×50 μL with DPBS w/o Ca & Mg (Mediatech 21-031-CV). Into dry wells, 20 μL of 1× Reporter Lysis Buffer (Promega E3971 (diluted in dH2O from 5× stock)) was added to each well and plates frozen at −20° C. overnight. For β-galactosidase enzyme colorimetric assay, plates were thawed out at room temperature and 20 μL 2× assay buffer (Promega) was added to each well. Color was allowed to develop at 37° C., 5% CO2, 90% Rh for 1-1.5 hours or until reasonable signal appeared. The colorimetric reaction was stopped with the addition of 60 μL/well 1M sodium carbonate. Plates were counted at 405 nm on a SpectraMax Microplate Reader (Molecular Devices). Data was analyzed in Microsoft Excel and IC/EC50 curves were fit using a standardized macro.

[2] = molecular target: T2, human adenosine A2A receptor (Homo sapiens, UniProt P29274); assay: Adenosine A2A Receptor Functional Assay (A2AGAL2); format: cell-based; conditions: for IC50: CHO-K1 cells overexpressing human A2A, cAMP inducible beta-galactosidase reporter, antagonist vs 15 nM NECA challenge; for A1/A2A: ratio of A1Gal2 to A2AGal2 value
T2 construct: expressed in transfected cells; host or cells: CHO-K1 cells with a cAMP inducible beta-galactosidase reporter gene
T2 sequence (P29274 whole entry): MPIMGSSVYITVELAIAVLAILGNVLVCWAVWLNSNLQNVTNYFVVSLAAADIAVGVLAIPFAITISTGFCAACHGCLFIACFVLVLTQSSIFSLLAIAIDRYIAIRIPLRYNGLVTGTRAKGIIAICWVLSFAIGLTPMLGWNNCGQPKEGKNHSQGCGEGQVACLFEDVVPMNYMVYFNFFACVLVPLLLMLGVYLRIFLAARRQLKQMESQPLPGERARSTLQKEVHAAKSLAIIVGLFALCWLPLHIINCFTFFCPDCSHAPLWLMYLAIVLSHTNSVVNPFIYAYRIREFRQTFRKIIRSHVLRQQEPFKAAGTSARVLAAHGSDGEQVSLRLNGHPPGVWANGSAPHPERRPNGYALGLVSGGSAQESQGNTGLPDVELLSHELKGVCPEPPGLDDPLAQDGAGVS
Protocol: Adenosine A2A Receptor Functional Assay (A2AGAL2)
To initiate the functional assay, cryopreserved CHO-K1 cells overexpressing the human adenosine A2A receptor and containing a cAMP inducible beta-galactosidase reporter gene were thawed, centrifuged, DMSO containing media removed, and then seeded with fresh culture media into clear 384-well tissue culture treated plates (BD #353961) at a concentration of 10K cells/well. Prior to assay, these plates were cultured for two days at 37° C., 5% CO2, 90% Rh. On the day of the functional assay, culture media was removed and replaced with 45 μL assay medium (Hams/F-12 Modified (Mediatech # 10-080CV) supplemented w/0.1% BSA). Test compounds were diluted and 11 point curves created at a 1000× concentration in 100% DMSO. Immediately after addition of assay media to the cell plates, 50 nL of the appropriate test compound antagonist or agonist control curves were added to cell plates using a Cartesian Hummingbird. Compound curves were allowed to incubate at room temperature on cell plates for approximately 15 minutes before addition of a 15 nM NECA (Sigma E2387) agonist challenge (5 μL volume). A control curve of NECA, a DMSO/Media control, and a single dose of Forskolin (Sigma F3917) were also included on each plate. After additions, cell plates were allowed to incubate at 37° C., 5% CO2, 90% Rh for 5.5-6 hours. After incubation, media were removed, and cell plates were washed 1×50 μL with DPBS w/o Ca & Mg (Mediatech 21-031-CV). Into dry wells, 20 μL of 1× Reporter Lysis Buffer (Promega E3971 (diluted in dH2O from 5× stock)) was added to each well and plates frozen at −20° C. overnight. For β-galactosidase enzyme colorimetric assay, plates were thawed out at room temperature and 20 μL 2× assay buffer (Promega) was added to each well. Color was allowed to develop at 37° C., 5% CO2, 90% Rh for 1-1.5 hours or until reasonable signal appeared. The colorimetric reaction was stopped with the addition of 60 μL/well 1M sodium carbonate. Plates were counted at 405 nm on a SpectraMax Microplate Reader (Molecular Devices). Data was analyzed in Microsoft Excel and IC/EC50 curves were fit using a standardized macro.

IC50 [1]	IC50 [2]	A1/A2A [2]	Structure (SMILES)
330 nM	6.3 nM	52.381	COc1ccc(-c2cccc3c2-c2nc(N)nc(-c4ccccc4)c2C3=O)cc1 [Example 17, 2-Amino-9-(4-methoxy-phenyl)-4-phenyl-indeno[1,2-d]pyrimidin-5-one]
230 nM	1.8 nM	127.778	COCCN1CCN(c2ccc(-c3cccc4c3-c3nc(N)nc(-c5ccc(F)cc5)c3C4=O)cc2)CC1 [Example 8, 2-Amino-4-(4-fluoro-phenyl)-9-{4-[4-(2-methoxy-ethyl)-piperazin-1-yl]-phenyl}-indeno[1,2-d]pyrimidin-5-one]
5500 nM	1.8 nM	3055.56	Nc1nc(-c2ccc(F)cc2)c2c(n1)-c1c(cccc1-c1ccc(N3CCN(CCC(F)(F)F)CC3)cc1)C2=O [Example 1, 2-Amino-4-(4-fluoro-phenyl)-9-{4-[4-(3,3,3-trifluoro-propyl)-piperazin-1-yl]-phenyl}-indeno[1,2-d]pyrimidin-5-one]
1800 nM	16 nM	112.5	CC(C)N1CCN(c2ccc(-c3cccc4c3-c3nc(N)nc(-c5ccc(F)cc5)c3C4=O)cc2)CC1 [Example 9, 2-Amino-4-(4-fluoro-phenyl)-9-[4-(4-isopropyl-piperazin-1-yl)-phenyl]-indeno[1,2-d]pyrimidin-5-one]
1400 nM	9.8 nM	142.857	CCC(C)N1CCN(c2ccc(-c3cccc4c3-c3nc(N)nc(-c5ccc(F)cc5)c3C4=O)cc2)CC1 (stereo not drawn) [Example 6, 2-Amino-9-[4-(4-sec-butyl-piperazin-1-yl)-phenyl]-4-(4-fluoro-phenyl)-indeno[1,2-d]pyrimidin-5-one]
3100 nM	10 nM	310	Nc1nc(-c2ccc(F)cc2)c2c(n1)-c1c(cccc1-c1ccc(N3CCN(Cc4ccccc4)CC3)cc1)C2=O [Example 4, 2-Amino-9-[4-(4-benzyl-piperazin-1-yl)-phenyl]-4-(4-fluoro-phenyl)-indeno[1,2-d]pyrimidin-5-one]
760 nM	10 nM	76	CCN1CCN(c2ccc(-c3cccc4c3-c3nc(N)nc(-c5ccc(F)cc5)c3C4=O)cc2)CC1 [Example 12, 2-Amino-9-[4-(4-ethyl-piperazin-1-yl)-phenyl]-4-(4-fluoro-phenyl)-indeno[1,2-d]pyrimidin-5-one]
270 nM	3.9 nM	69.2308	Nc1nc(-c2ccc(F)cc2)c2c(n1)-c1c(cccc1-c1ccc(OCCN3CCOCC3)cc1)C2=O [Example 13, 2-Amino-4-(4-fluoro-phenyl)-9-[4-(2-morpholin-4-yl-ethoxy)-phenyl]-indeno[1,2-d]pyrimidin-5-one]
4200 nM	23 nM	182.609	CCC(CC)N1CCN(c2ccc(-c3cccc4c3-c3nc(N)nc(-c5ccc(F)cc5)c3C4=O)cc2)CC1 [Example 5, 2-Amino-9-{4-[4-(1-ethyl-propyl)-piperazin-1-yl]-phenyl}-4-(4-fluoro-phenyl)-indeno[1,2-d]pyrimidin-5-one]
520 nM	8.7 nM	59.7701	CCCN1CCN(c2ccc(-c3cccc4c3-c3nc(N)nc(-c5ccc(F)cc5)c3C4=O)cc2)CC1 [Example 15, 2-Amino-4-(4-fluoro-phenyl)-9-[4-(4-propyl-piperazin-1-yl)-phenyl]-indeno[1,2-d]pyrimidin-5-one]

Further lines, the compound ahead of its results:

Structure (SMILES)	IC50 [1]	IC50 [2]	A1/A2A [2]
Nc1nc(-c2ccc(F)cc2)c2c(n1)-c1c(cccc1-c1cccc(F)c1)C2=O [Example 3, 2-Amino-4-(4-fluoro-phenyl)-9-(3-fluoro-phenyl)-indeno[1,2-d]pyrimidin-5-one]	8900 nM	26 nM	342.308
N#Cc1ccc(-c2cccc3c2-c2nc(N)nc(-c4ccc(F)cc4)c2C3=O)cc1 [Example 10, 4-[2-Amino-4-(4-fluoro-phenyl)-5-oxo-5H-indeno[1,2-d]pyrimidin-9-yl]-benzonitrile]	270 nM	2.6 nM	103.846
Nc1nc(-c2ccc(F)cc2)c2c(n1)-c1c(cccc1-c1ccc(N3CCN(CC4CC4)CC3)cc1)C2=O [Example 7, 2-Amino-9-[4-(4-cyclopropylmethyl-piperazin-1-yl)-phenyl]-4-(4-fluoro-phenyl)-indeno[1,2-d]pyrimidin-5-one]	1100 nM	8.3 nM	131.69
Nc1nc(-c2ccccc2)c2c(n1)-c1c(cccc1-c1ccccc1)C2=O [Example 14, 2-Amino-4,9-diphenyl-indeno[1,2-d]pyrimidin-5-one]	570 nM	8.6 nM	66.2791
CC(C)CCN1CCN(c2ccc(-c3cccc4c3-c3nc(N)nc(-c5ccc(F)cc5)c3C4=O)cc2)CC1 [Example 11, 2-Amino-4-(4-fluoro-phenyl)-9-{4-[4-(3-methyl-butyl)-piperazin-1-yl]-phenyl}-indeno[1,2-d]pyrimidin-5-one]	1100 nM	11 nM	100
CC(C)CN1CCN(c2ccc(-c3cccc4c3-c3nc(N)nc(-c5ccc(F)cc5)c3C4=O)cc2)CC1 [Example 2, 2-Amino-4-(4-fluoro-phenyl)-9-[4-(4-isobutyl-piperazin-1-yl)-phenyl]-indeno[1,2-d]pyrimidin-5-one]	4200 nM	7.1 nM	591.549
Cc1cccc(-c2cccc3c2-c2nc(N)nc(-c4ccc(F)cc4)c2C3=O)c1 [Example 16, 2-Amino-4-(4-fluoro-phenyl)-9-m-tolyl-indeno[1,2-d]pyrimidin-5-one]	1800 nM	31 nM	58.0645
